Measurements as given in patent publication US5508039A (priority 1994, dated 1996).

Experiments:
mice = conditions: cited from earlier work
[1] = test system: desynchronized blind persons; conditions: oral; cited from earlier work
[2] = cited from earlier work
[3] = general statement; cited from earlier work
clinical = assay type: in vivo, human
Method: (§1) Therapeutic blood levels from 20 pg/ml to 1,000 pg/ml can be obtained from administration rates in the range of […]. […] Therapeutic blood levels can be achieved within approximately 2 hours, and peak blood concentrations are achieved at about 4-6 hours when the system is worn for 4-6 hours. […] The system application is easily adapted for shorter or longer duration treatments, but generally 6 hours is the nominal duration for treatment of most insomnias.

breast cancer = conditions: cited from earlier work
[4] = test system: intraocular pressure in glaucoma; conditions: cited from earlier work
[5] = human, in vivo; cited from earlier work
insomniacs = conditions: oral; cited from earlier work
[6] = assay type: in vivo, human
Method: as §1

[7] = human, in vivo, topical or ocular

COc1ccc2[nH]cc(CCNC(C)=O)c2c1 [melatonin, N-acetyl-5-methoxytryptamine]
LD50 intraperitoneal (mice; intraperitoneal): 1375 mg/kg | LD50 intravenous (mice; intravenous): 180 mg/kg | timing of sleep cycles [1]: Improved timing of sleep cycles | absorption through the gastrointestinal tract ([2]; in vivo, po): readily absorbed | inactivation by liver of absorbed melatonin on first-pass ([2]; oral): ≤ 99% | toxicity [3]: relatively non-toxic | desired and achievable system flux through the skin from a limited area (clinical): 0,025-1.0 | Tmax (clinical; [7]): 4 to 6 h | half-life (clinical; [7]): 1 to 2 h | time to achieve therapeutic blood levels (clinical; in vivo): ≤ 2 h | inhibition of breast cancer (breast cancer): inhibit breast cancer | intraocular pressure [4]: lower intraocular pressure in glaucoma | metabolic clearance [5]: approximately 1 liter per minute | terminal plasma elimination half-life [5]: approximately 45 minutes | volume of distribution [5]: approximately 40 liters | mood, drive, alertness, and reaction time the next day (insomniacs): improved | time awake before sleep onset, sleep latency and number of awakenings (insomniacs): reduced the time awake before sleep onset and diminished sleep latency and number of awakenings | skin flux through living human skin [6]: 0.05-10 mg/cm^2 /hr
